The values that follow come from paper PMC11850127 (The Journal of Biological Chemistry, 2025).

Entries after “also recorded” stand apart in the source; their conditions may differ. Read-outs that look alike come from different tables or passages of the source.

The target of assay [1] is T1, [V13′T]α10 nAChRs (Homo sapiens, UniProt Q9GZZ6, V280T). Format: cell-based, human (expressed in Xenopus laevis oocytes).
Assay [2] relates to homomeric α10 nAChRs. The settings on record: cited from earlier work.
The target in assay [3] is T1, [V13′T]α10 nAChRs. In words: cell-based. The format is cell-based, human (expressed in Xenopus laevis oocytes).
The subject of assay [4] is human α10 nAChR. Format: cell-based, human (expressed in Xenopus laevis oocytes).
Assay [5] relates to [V13′T]α10 nAChR. Format: cell-based, human (expressed in Xenopus laevis oocytes).
Assay [6] concerns uninjected oocytes and oocytes injected with RIC-3 alone. Format: cell-based, Xenopus laevis.
Assay [7] has as its system (α4)2(β2)3. The settings on record: cited from earlier work.
In assay [8] the test system is (α4)3(β2)2. Particulars: cited from earlier work.
Assay [9] relates to homomeric α9 nAChRs. Particulars: cited from earlier work.
For assay [10], the system named is homomeric α9 nAChRs. The settings on record: cited from earlier work. This is another data set of the same source.
Assay [11] has as its system human α10 nAChRs. The format is cell-based, human (expressed in Xenopus laevis oocytes).
Assay [12] concerns homomeric α7 nAChRs. Particulars: cited from earlier work.
In assay [13] the test system is α9α10 nAChRs. Particulars: cited from earlier work.
Assay [14] relates to α9 homomers. Particulars: cited from earlier work.
Assay [15] has as its system muscle type nAChRs. The settings on record: cited from earlier work.

T1 sequence (Q9GZZ6 25-450 V280T limits assumed): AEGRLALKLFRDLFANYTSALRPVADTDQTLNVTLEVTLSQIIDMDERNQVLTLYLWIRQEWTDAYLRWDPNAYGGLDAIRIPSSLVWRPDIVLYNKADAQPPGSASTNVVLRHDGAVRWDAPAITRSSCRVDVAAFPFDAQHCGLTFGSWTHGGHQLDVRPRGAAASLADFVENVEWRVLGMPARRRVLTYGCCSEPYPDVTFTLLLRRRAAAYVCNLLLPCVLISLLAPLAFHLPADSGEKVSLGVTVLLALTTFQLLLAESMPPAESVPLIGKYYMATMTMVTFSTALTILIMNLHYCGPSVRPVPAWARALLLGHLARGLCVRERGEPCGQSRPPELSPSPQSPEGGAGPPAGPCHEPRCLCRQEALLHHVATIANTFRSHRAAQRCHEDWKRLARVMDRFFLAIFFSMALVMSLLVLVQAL

With `CN1[C@@H]2CC[C@H]1C[C@@H](OC(=O)C(CO)c1ccccc1)C2` (stereo partly drawn) [atropine], in [1], the “ACh-evoked response, percent of baseline” value is recorded as 230 ± 44%; the “enhancement of ACh-evoked response” value was found to be 230 ± 44%; the “onset and reversal of potentiation” value is “rapid onset and reversal”; the “potentiation of ACh-evoked currents (in words)” value is reported as “rapid, significant potentiation”.

`CCN1C[C@]2(COC(=O)c3ccccc3N3C(=O)C[C@H](C)C3=O)CC[C@H](OC)[C@@]34[C@@H]5C[C@H]6[C@H](OC)[C@@H]5[C@](O)(C[C@@H]6OC)[C@@](O)([C@@H](OC)[C@H]23)[C@@H]14` [methyllycaconitine]: the “enabling of function/expression of homomeric α10 nAChRs” value in assay [2] is reported as “can enable the function of homomeric α10 mammalian nAChRs”.

Consider `C[N+](C)(C)CCO` [choline], for which, in assay [3], it took 200 µM to reach a half-maximal effect (EC50), the Hill slope was 0.49 (0.41–0.60), the agonist class result is “partial agonists” and the “efficacy of choline relative to nicotine” value was “more efficacious than nicotine”. In addition, the “efficacy relative to ACh” value in assay [3] is on record as “lower efficacy than ACh”.

As for `CC(=O)OCC[N+](C)(C)C` [ACh, Acetylcholine], in [4], the “ACh-induced current, average amplitude” value amounted to 17 nA; the “mean ACh-induced response” value is given as −7 ± 6 nA; the “response to ACh, α10 + RIC-3 versus α10 only” value is listed as “significantly greater than those observed in α10-only injected oocytes; also recorded: significantly larger responses”. Moreover, the “range of ACh-induced response” value in assay [4] (n = 12) is given as −2 to −24 nA. Also, in [5], the “effect of absence of Ca^2+ on ACh-evoked currents” value is reported as “did not substantially reduce ACh-evoked currents” and the “mean ACh-induced response without actinomycin D” value is reported as −208 ± 227 nA. Moreover, the “range of ACh-induced response” value in [5] (n = 12) was −117 to −1120 nA. Further, in assay [3], the “ACh-induced currents versus those induced by choline or nicotine” value was “significantly larger” and the Hill slope is 0.82 (0.67–1.01). In assay [6] (n = 10), the “ACh-induced current in uninjected oocytes” value is reported as “did not produce currents; also recorded: No ACh-induced currents were observed”. Moreover, the “ACh-induced current in oocytes injected with RIC-3 alone” value in [6] (n = 20) is listed as “did not produce currents; also recorded: No ACh-induced currents were observed”. Besides, the affinity for acetylcholine entry in [7] was “high”. The affinity for acetylcholine result in assay [8] is listed as “low”. For the same compound, the ACh-induced currents entry in [9] was “small currents”. Moreover, the ACh-induced currents result in [10] is given as “small currents”.

On to `O=C1C[C@@H]2OCC=C3CN4CC[C@]56c7ccccc7N1[C@H]5[C@H]2[C@H]3C[C@H]46` [strychnine], for which, in [11], the “effect of strychnine on α10 nAChR function, higher concentrations” value is on record as “block α10 nAChR function” and the “effect of strychnine on α10 plus RIC-3 oocytes, lower concentrations” value is “further substantial increase in expression”. Also, in assay [1], the “ACh-evoked response, percent of baseline” value was found to be 572 ± 131%; the “effect of strychnine at low concentrations” value is “enhanced [V13′T]α10 responses to ACh”; the “effect of strychnine at the highest concentration” value was “inhibitory effect; also recorded: almost entirely inhibited”; the “effect of strychnine on [V13′T]α10 + RIC-3 responses” value is “further enhanced”. In [1], the “enhancement of ACh-evoked response” value is given as 572 ± 131%; the “maximum enhancement of ACh responses” value was “greater than 5 fold”; the “potentiation of ACh-evoked currents (in words)” value is “rapid, significant potentiation”; the “strychnine concentration of maximum potentiation” value was found to be 1 µM. Besides, the “block of homomeric α7 nAChRs by strychnine” value in [12] was “blocks”. The “block of α9α10 nAChRs by strychnine” value in [13] is recorded as “blocks”. For the same compound, the “block of homomeric α9 nAChRs by strychnine” value in [14] was “blocks”. For the same compound, the “enabling of function/expression of homomeric α10 nAChRs” value in [2] is “enable the expression of human α10 nAChRs; also recorded: enable functional expression of wild-type α10 homomers in oocytes; also recorded: can enable the function of homomeric α10 mammalian nAChRs”.

Regarding α-bungarotoxin, in assay [11], the “antagonist sensitivity of α10 homomers” value was “blocked; also recorded: sensitive” and the “block of ACh-evoked current” value is on record as “completely blocked; also recorded: sensitive; also recorded: inhibited”. Moreover, in [1], the Hill slope is listed as −1.17 and inhibition was half-maximal at 0.331 µM (IC50). Besides, the “block of α7 homomers by α-bungarotoxin” value in [12] is “blocks”. Further, the “block of α9α10 nAChRs by α-bungarotoxin” value in assay [13] is reported as “sensitive; also recorded: blocks”. For the same compound, in assay [14], the “sensitivity of α9 to α-bungarotoxin” value was “sensitive”. In assay [15], the “block of muscle type nAChRs by α-bungarotoxin” value is recorded as “blocks”.

For the compound dihydro-β-erythroidine, in assay [1] (3 μM, 10 min, n = 5), the “effect on ACh-evoked response” value is reported as “no significant activity; also recorded: not significantly altered”.

As for `CN1CCC[C@H]1c1cccnc1` [nicotine], in assay [3], the EC50 worked out at 350 µM, the Hill slope was 0.59 (0.49–0.69), the agonist class result is given as “partial agonist” and the “efficacy relative to ACh” value is “lower efficacy than ACh”. In addition, in [13], the “action of nicotine on wild-type α9α10 nAChRs” value was “antagonist”.

`COc1cc2c(cc1OC)[C@@]13CCN4CC5=CCO[C@H]6CC(=O)N2[C@H]1[C@H]6[C@H]5C[C@H]43` [brucine]: the “enabling of function/expression of homomeric α10 nAChRs” value in assay [2] is listed as “can enable the function of homomeric α10 mammalian nAChRs”.
